Test system: 186277-243-T-J2-PDC complex spheroid growth
Experiment: Anticancer human tumor 186277-243-T-J2-PDC patient-derived colon adenocarcinoma cell line growth inhibition [AhR]
Conditions: for IC50: curve of first compound; for viability, T/C: stronger effect = lower value
From the text: Multicellular complex tumor spheroid response to aryl hydrocarbon receptor antagonists in combination with a variety of drugs and investigational agents in selected tumor cell lines
The current study was undertaken to assess response to aryl hydrocarbon receptor antagonists in combination with standard-of-care drugs and investigational agents in solid tumor complex spheroid models. Complex spheroids include a stromal component modeled by human endothelial cells (HUVEC) and fibroblasts modeled by human mesenchymal stem cells (MSCs). The concentration ranges selected for each drug and investigational agent were based upon clinically achievable concentrations if the clinical Cmax of the agent was known.
Compounds. The drugs and investigational agents: BAY 2416964 (NSC825713), GNF351 (NSC835774), CH-223191 (NSC835775), CPI-455 (NSC825282), aza-TdCyd (NSC777586), decitabine (NSC127716), belinostat (NSC758774), entinostat (NSC756642), pevonedistat (NSC761192), tazemetostat (NSC777109), talazoparib (NSC765396), olaparib (NSC753686), selinexor (NSC780203), nedisertib (M3814, NSC802822), bortezomib (NSC756655), venetoclax (NSC766270), doxorubicin (NSC123127), elimusertib (BAY189344, NSC800525), ceralasertib (AZD6738, NSC777638), TAK-243 (NSC785004), alisertib (NSC759677), etoposide (NSC141540), topotecan (NSC609699), eribulin (NSC707389), gemcitabine (NSC613327), carboplatin (NSC241240), cisplatin (NSC119875), and SN-38 (NSC673596) were obtained from the National Cancer Institute (NCI) Developmental Therapeutics Program Chemical Repository (32). The FDA-approved anticancer drug set is available from the Developmental Therapeutics Program at https://dtp.cancer.gov/organization/dscb/obtaining/available plates.htm. […] The stock solutions were prepared in dimethyl sulfoxide (DMSO, Sigma-Aldrich, St. Louis, MO, cat. D2650), except for the platinum compounds which were prepared in saline (Quality Biological, Gaithersburg, MD, cat. 114-055-101), at 800-fold the tested concentration and stored at -70 degrees C prior to their use. All drugs and investigational agents were tested over a range starting from a high concentration at or near the clinical Cmax and decreasing in half-log increments. If the clinical Cmax for an agent had not been determined, the highest concentration tested was 10 microM (Table 1).
Cell Culture. All cells were maintained in an incubator at 37 degrees C and 5% CO2 with 95% humidity. The PDC lines were cultured according to standard operating procedures established by the NCI PDMR (https://pdmr.cancer.gov). Briefly, all PDCs were thawed and cultured in Matrigel-coated flasks prepared with a working solution of 1X Ham's F-12 nutrient mix, without supplementation (Invitrogen, Waltham, MA, cat. 11765054), 100 U/mL penicillin-streptomycin (Invitrogen, cat. 15140122), and 2.5% Matrigel (Corning Inc., Corning, NY, cat. 354248) for the first three passages. All PDCs were cultured in complete DMEM/F-12 media containing advanced DMEM/F-12 (Invitrogen, cat. 12634028), 4.9% defined fetal bovine serum, heat inactivated (HyClone Laboratories Inc., Logan, UT, cat. SH30070.03HI), 389 ng/mL hydrocortisone (Sigma-Aldrich, cat. H4001), 9.7 ng/mL human EGF recombinant protein (Invitrogen, cat. PHG0313), 23.4 microg/mL adenine (Sigma-Aldrich, cat. A2786), 97.3 U/mL penicillin-streptomycin (Invitrogen, cat. 15140122), 1.9 mM L-glutamine (Invitrogen, cat. 25030081), and 9.7 microM Y-27632 dihydrochloride (Tocris Bioscience, Bristol, United Kingdom, cat. 1254). The PDCs were cultured in complete DMEM/F12 media without 10 microM Y-27632 dihydrochloride for at least two passages prior to the screen. The established cell lines NCI-H1341 and […] were cultured in DMEM/F-12, HEPES (Invitrogen, cat. 11330032), 5% defined fetal bovine serum (HyClone Laboratories Inc., cat. SH30070.03), ITS premix universal culture supplement [insulin (5 microg/mL), transferrin (5 microg/mL), and selenious acid (5 ng/mL)] […]

[1] = second compound 0.1 µM, first compound 0.0316 µM
[2] = second compound 0.1 µM, first compound 0.1 µM
[3] = second compound 0.1 µM, first compound 0.316 µM
[4] = second compound 0.1 µM, first compound 1 µM
[5] = second compound 0.1 µM, first compound 3.16 µM
[6] = second compound 0.1 µM, first compound 10 µM
[7] = second compound 0.316 µM, first compound 0.0316 µM
[8] = second compound 0.316 µM, first compound 0.1 µM
[9] = second compound 0.316 µM, first compound 0.316 µM
[10] = second compound 0.316 µM, first compound 1 µM
[11] = second compound 0.316 µM, first compound 3.16 µM
[12] = second compound 0.316 µM, first compound 10 µM
[13] = second compound 1 µM, first compound 0.0316 µM
[14] = second compound 1 µM, first compound 0.1 µM
[15] = second compound 1 µM, first compound 0.316 µM
[16] = second compound 1 µM, first compound 1 µM
[17] = second compound 1 µM, first compound 3.16 µM
[18] = second compound 1 µM, first compound 10 µM
[19] = second compound 3.16 µM, first compound 0.0316 µM
[20] = second compound 3.16 µM, first compound 0.1 µM
[21] = second compound 3.16 µM, first compound 0.316 µM
[22] = second compound 3.16 µM, first compound 1 µM
[23] = second compound 3.16 µM, first compound 3.16 µM
[24] = second compound 3.16 µM, first compound 10 µM
[25] = second compound 10 µM, first compound 0.0316 µM
[26] = second compound 10 µM, first compound 0.1 µM
[27] = second compound 10 µM, first compound 0.316 µM
[28] = second compound 10 µM, first compound 1 µM
[29] = second compound 10 µM, first compound 3.16 µM
[30] = second compound 10 µM, first compound 10 µM
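Note: spheroids exposed to compounds for seven days before the viability read.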
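Throughout, for viability, T/C: luminescent signal used as a stand-in for viable cell amount; 100% = DMSO vehicle control wells.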

| Structure (SMILES) | IC50 (second compound 0.1 µM) | IC50 (second compound 0.316 µM) | IC50 (second compound 1 µM) | IC50 (second compound 3.16 µM) | IC50 (second compound 10 µM) | viability, T/C [1] | viability, T/C [2] | viability, T/C [3] | viability, T/C [4] | viability, T/C [5] | viability, T/C [6] | viability, T/C [7] | viability, T/C [8] | viability, T/C [9] | viability, T/C [13] | viability, T/C [14] | viability, T/C [19] | viability, T/C [20] | viability, T/C [25] | viability, T/C [26] | other results |
| --- | --- | --- | --- | --- | --- | --- | --- | --- | --- | --- | --- | --- | --- | --- | --- | --- | --- | --- | --- | --- | --- |
| CC1(C)CCC(CN2CCN(c3ccc(C(=O)NS(=O)(=O)c4ccc(NCC5CCOCC5)c([N+](=O)[O-])c4)c(Oc4cnc5[nH]ccc5c4)c3)CC2)=C(c2ccc(Cl)cc2)C1 + CC(CO)NC(=O)c1cc(-c2ccc(Cl)cc2)nn(-c2cnn(C)c2)c1=O | 5420 nM | 5940 nM | 5710 nM | 5560 nM | 4820 nM | 99.3% | 113% | 102% | 101% | 84.8% | 10.5% | 108% | 94.8% | 96.7% | 112% | 98.4% | 95.2% | 85.8% | 77.5% | 96.7% | viability, T/C [10]: 94.2%; viability, T/C [11]: 96.2%; viability, T/C [12]: 11.8%; viability, T/C [15]: 109%; viability, T/C [16]: 95.8%; viability, T/C [17]: 92.1%; viability, T/C [18]: 10.1%; viability, T/C [21]: 83.1%; viability, T/C [22]: 94.2%; viability, T/C [23]: 88.1%; viability, T/C [24]: 10.2%; viability, T/C [27]: 83.9%; viability, T/C [28]: 78.7%; viability, T/C [29]: 74.4%; viability, T/C [30]: 9.34% |
| COc1cc(Nc2ncc3c(n2)-c2ccc(Cl)cc2C(c2c(F)cccc2OC)=NC3)ccc1C(=O)O + CC(CO)NC(=O)c1cc(-c2ccc(Cl)cc2)nn(-c2cnn(C)c2)c1=O | < 31.6 nM | < 31.6 nM | < 31.6 nM | < 31.6 nM | < 31.6 nM | 27.6% | 22.9% | 21.5% | 20.5% | 22.3% | 27.9% | 26.1% | 23.8% | 22.4% | 30.3% | 22% | 26.1% | 24.2% | 23.6% | 22.3% | viability, T/C [10]: 18.9%; viability, T/C [11]: 22.7%; viability, T/C [12]: 22.7%; viability, T/C [15]: 21.9%; viability, T/C [16]: 20.7%; viability, T/C [17]: 22.2%; viability, T/C [18]: 25%; viability, T/C [21]: 20.7%; viability, T/C [22]: 19.3%; viability, T/C [23]: 23%; viability, T/C [24]: 26%; viability, T/C [27]: 21.5%; viability, T/C [28]: 21.2%; viability, T/C [29]: 23.4%; viability, T/C [30]: 26.1% |
| Cn1ncnc1C1c2n[nH]c(=O)c3cc(F)cc(c23)NC1c1ccc(F)cc1 (stereo not given) + CC(CO)NC(=O)c1cc(-c2ccc(Cl)cc2)nn(-c2cnn(C)c2)c1=O | > 100 nM | > 100 nM | > 100 nM | > 100 nM | > 100 nM | 89.4% | 63.8% | – | – | – | – | 83% | 64.5% | – | 79.4% | 69.3% | 76.5% | 67.7% | 61.9% | 56% | viability, T/C (second compound 0.1 µM, first compound 0.000316 µM): 103%; viability, T/C (second compound 0.1 µM, first compound 0.001 µM): 99.3%; viability, T/C (second compound 0.1 µM, first compound 0.00316 µM): 102%; viability, T/C (second compound 0.1 µM, first compound 0.01 µM): 93.5%; viability, T/C (second compound 0.316 µM, first compound 0.000316 µM): 111%; viability, T/C (second compound 0.316 µM, first compound 0.001 µM): 106%; viability, T/C (second compound 0.316 µM, first compound 0.00316 µM): 93.1%; viability, T/C (second compound 0.316 µM, first compound 0.01 µM): 96.9%; viability, T/C (second compound 1 µM, first compound 0.000316 µM): 102%; viability, T/C (second compound 1 µM, first compound 0.001 µM): 108%; viability, T/C (second compound 1 µM, first compound 0.00316 µM): 118%; viability, T/C (second compound 1 µM, first compound 0.01 µM): 94.6%; viability, T/C (second compound 3.16 µM, first compound 0.000316 µM): 92.7%; viability, T/C (second compound 3.16 µM, first compound 0.001 µM): 109%; viability, T/C (second compound 3.16 µM, first compound 0.00316 µM): 94.7%; viability, T/C (second compound 3.16 µM, first compound 0.01 µM): 86.4%; viability, T/C (second compound 10 µM, first compound 0.000316 µM): 87%; viability, T/C (second compound 10 µM, first compound 0.001 µM): 98.1%; viability, T/C (second compound 10 µM, first compound 0.00316 µM): 84.5%; viability, T/C (second compound 10 µM, first compound 0.01 µM): 72.3% |
| NS(=O)(=O)OCC1CC(n2ccc3c(NC4CCc5ccccc54)ncnc32)CC1O (stereo not given) + CC(CO)NC(=O)c1cc(-c2ccc(Cl)cc2)nn(-c2cnn(C)c2)c1=O | 205 nM | 193 nM | 150 nM | 139 nM | 110 nM | 102% | 76.7% | 33.5% | 11% | 4.62% | 1.34% | 91.8% | 76.7% | 29.4% | 89.9% | 65.1% | 78.3% | 61.1% | 63.5% | 53.2% | viability, T/C [10]: 10.7%; viability, T/C [11]: 3.18%; viability, T/C [12]: 0.98%; viability, T/C [15]: 22.1%; viability, T/C [16]: 8.96%; viability, T/C [17]: 3.1%; viability, T/C [18]: 1.27%; viability, T/C [21]: 22.9%; viability, T/C [22]: 7.89%; viability, T/C [23]: 2.24%; viability, T/C [24]: 1.06%; viability, T/C [27]: 22%; viability, T/C [28]: 8.3%; viability, T/C [29]: 2.58%; viability, T/C [30]: 1.14% |
